Experimental data taken from the supplement of paper PMC5908809.

Assays:
[1] = tested on: normal NK cells expanded with K562-aAPC; assay: percent inhibition of viability; higher = more inhibition; settings: 72 h, IL-2 2.5 ng/mL
Procedure: (§1)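 Drug sensitivity and resistance testing on K562-aAPC-expanded normal NK cells: 5 concentrations (10-fold steps over a 10,000-fold range), 72 h at 37 °C, viability by CellTiter-Glo normalised to DMSO and benzethonium chloride controls; DSS from the fitted curve.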

DERL-7 (IL-2 2.5 ng/mL) [2] = assay: as above; settings: 72 h
IMC-1 (IL-2 20 ng/mL) [3] = assay: as above; settings: 72 h
KAI3 (IL-2 2.5 ng/mL) [4] = assay: as above; settings: 72 h
KHYG-1 (IL-2 2.5 ng/mL) [5] = assay: as above; settings: 72 h
NK-92 (IL-2 2.5 ng/mL) [6] = assay: as above; settings: 72 h
NK-YS (IL-2 2.5 ng/mL) [7] = assay: as above; settings: 72 h
NKL (IL-2 2.5 ng/mL) [8] = assay: as above; settings: 72 h
SNK-6 (IL-2 2.5 ng/mL) [9] = assay: as above; settings: 72 h
YT (IL-2 2.5 ng/mL) [10] = assay: as above; settings: 72 h
[11] = tested on: normal primary NK cells, pool 1 (3 donors) (IL-2 2.5 ng/mL); assay: as above; settings: 72 h
[12] = tested on: normal primary NK cells, pool 1 (3 donors), resting (IL-2 0 ng/mL); assay: as above; settings: 72 h
[13] = tested on: normal primary NK cells, pool 2 (3 donors) (IL-2 2.5 ng/mL); assay: as above; settings: 72 h
[14] = tested on: normal primary NK cells, pool 3 (3 donors) (IL-2 2.5 ng/mL); assay: as above; settings: 72 h
[15] = tested on: normal NK cells expanded with K562-aAPC; assay: drug sensitivity score (DSS) (DSS units); higher = more sensitive; extreme values may be limits of the assay; settings: 72 h; IL-2 2.5 ng/mL
Procedure: as §1

DERL-7 (IL-2 2.5 ng/mL) [16] = assay: as above; settings: 72 h
IMC-1 (IL-2 20 ng/mL) [17] = assay: as above; settings: 72 h
KAI3 (IL-2 2.5 ng/mL) [18] = assay: as above; settings: 72 h
KHYG-1 (IL-2 2.5 ng/mL) [19] = assay: as above; settings: 72 h
NK-92 (IL-2 2.5 ng/mL) [20] = assay: as above; settings: 72 h
NK-YS (IL-2 2.5 ng/mL) [21] = assay: as above; settings: 72 h
NKL (IL-2 2.5 ng/mL) [22] = assay: as above; settings: 72 h
SNK-6 (IL-2 2.5 ng/mL) [23] = assay: as above; settings: 72 h
YT (IL-2 2.5 ng/mL) [24] = assay: as above; settings: 72 h
[25] = tested on: normal primary NK cells, pool 1 (3 donors) (IL-2 2.5 ng/mL); assay: as above; settings: 72 h
[26] = tested on: normal primary NK cells, pool 1 (3 donors), resting (IL-2 0 ng/mL); assay: as above; settings: 72 h
[27] = tested on: normal primary NK cells, pool 2 (3 donors) (IL-2 2.5 ng/mL); assay: as above; settings: 72 h
[28] = tested on: normal primary NK cells, pool 3 (3 donors) (IL-2 2.5 ng/mL); assay: as above; settings: 72 h

O=C(O)c1ccc(O)c2ncccc12 [IOX-1] (max concentration tested 100000 nM)
percent inhibition of viability [%]
Settings	10 nM	100 nM	1000 nM	10000 nM	100000 nM
DERL-7 (IL-2 2.5 ng/mL) [2]	3.2	6.07	1.59	7.49	60.9
IMC-1 (IL-2 20 ng/mL) [3]	-3.09	-5.78	-3.15	-12.9	98.3
KAI3 (IL-2 2.5 ng/mL) [4]	-3.64	-1.76	6.25	18.8	90.3
KHYG-1 (IL-2 2.5 ng/mL) [5]	-4.24	1.11	-3.63	4.25	97.2
NK-92 (IL-2 2.5 ng/mL) [6]	-6.93	3.17	-9.38	5.58	84.7
NK-YS (IL-2 2.5 ng/mL) [7]	-2.09	1.71	-3.7	-0.87	90
NKL (IL-2 2.5 ng/mL) [8]	1.44	-6.7	-0.16	3.16	91.7
SNK-6 (IL-2 2.5 ng/mL) [9]	5.81	6.03	15.1	13.8	96.1
YT (IL-2 2.5 ng/mL) [10]	-3.65	-2.89	-3.48	-1.62	93.9
[1]	2.28	-1.61	-3.75	-2.77	37.3
[11]	-3.62	-13.1	0.64	8.14	36.8
[12]	-3.86	-11	-13.3	21.7	44.1
[13]	-7.65	2.85	-9.5	-2.84	18.6
[14]	-7.55	-4.61	-5.18	1.2	19.5

Settings	drug sensitivity score
DERL-7 (IL-2 2.5 ng/mL) [16]	4.57
IMC-1 (IL-2 20 ng/mL) [17]	4.66
KAI3 (IL-2 2.5 ng/mL) [18]	8.02
KHYG-1 (IL-2 2.5 ng/mL) [19]	5.99
NK-92 (IL-2 2.5 ng/mL) [20]	5.53
NK-YS (IL-2 2.5 ng/mL) [21]	4.95
NKL (IL-2 2.5 ng/mL) [22]	5.52
SNK-6 (IL-2 2.5 ng/mL) [23]	7.64
YT (IL-2 2.5 ng/mL) [24]	5.1
[15]	1.59
[25]	3.07
[26]	5.03
[27]	0.36
[28]	0.69

C#Cc1cccc(Nc2ncnc3cc4c(cc23)OCCOCCOCCO4)c1 [Icotinib] (max concentration tested 10000 nM)
percent inhibition of viability [%]
Settings	1 nM	10 nM	100 nM	1000 nM	10000 nM
DERL-7 (IL-2 2.5 ng/mL) [2]	-3.69	4.28	2.21	-3.13	21.1
IMC-1 (IL-2 20 ng/mL) [3]	-2.8	-2.04	2.45	1.87	17.3
KAI3 (IL-2 2.5 ng/mL) [4]	0.88	-3.16	3.15	-4.22	15.3
KHYG-1 (IL-2 2.5 ng/mL) [5]	2.44	3.1	7.32	5.9	20.9
NK-92 (IL-2 2.5 ng/mL) [6]	-11.7	-6.9	8.46	9.17	60.1
NK-YS (IL-2 2.5 ng/mL) [7]	1.39	-0.84	6.96	1.74	17.6
NKL (IL-2 2.5 ng/mL) [8]	-8.58	1.33	-2.78	-2.73	7.37
SNK-6 (IL-2 2.5 ng/mL) [9]	8.75	4.17	-5.78	8.65	12.1
YT (IL-2 2.5 ng/mL) [10]	-0.54	0.7	2.3	-0.04	20.5
[1]	-2.8	5.15	5.26	7.7	24.2
[11]	2.64	-2.92	-2.29	-5.75	8.93
[12]	3.19	-9.84	4.39	-8.23	35.6
[13]	-5.53	5.07	5.9	-0.93	18.9
[14]	-12.7	-5.94	3.15	-6.39	-5.24

Settings	drug sensitivity score
DERL-7 (IL-2 2.5 ng/mL) [16]	0.52
IMC-1 (IL-2 20 ng/mL) [17]	0.61
KAI3 (IL-2 2.5 ng/mL) [18]	0.15
KHYG-1 (IL-2 2.5 ng/mL) [19]	0.85
NK-92 (IL-2 2.5 ng/mL) [20]	4.82
NK-YS (IL-2 2.5 ng/mL) [21]	0.62
NKL (IL-2 2.5 ng/mL) [22]	0
SNK-6 (IL-2 2.5 ng/mL) [23]	0.39
YT (IL-2 2.5 ng/mL) [24]	0.63
[15]	1.38
[25]	0
[26]	1.28
[27]	0.45
[28]	0

O=C(Nc1ccncc1)C(=O)c1cn(Cc2ccc(Cl)cc2)c2ccccc12 [Indibulin] (max concentration tested 10000 nM)
percent inhibition of viability [%]
Settings	1 nM	10 nM	100 nM	1000 nM	10000 nM
DERL-7 (IL-2 2.5 ng/mL) [2]	0.04	6.67	4.75	46.8	89.2
IMC-1 (IL-2 20 ng/mL) [3]	-3.14	0.7	4.01	92.4	98.2
KAI3 (IL-2 2.5 ng/mL) [4]	3.69	14.7	33	55.2	49.6
KHYG-1 (IL-2 2.5 ng/mL) [5]	-4.72	2.71	48.2	102	96
NK-92 (IL-2 2.5 ng/mL) [6]	-6.37	25.8	53.4	90.8	88.7
NK-YS (IL-2 2.5 ng/mL) [7]	-6.38	5.31	41.8	72.1	62.7
NKL (IL-2 2.5 ng/mL) [8]	-12.2	-11.9	51.8	86.5	83.6
SNK-6 (IL-2 2.5 ng/mL) [9]	23.1	63.2	78.4	84	80.9
YT (IL-2 2.5 ng/mL) [10]	-4.48	2.55	34.7	90.4	92
[1]	0.45	-0.15	0.03	26.6	49.8
[11]	-10.2	-6.02	-8.45	-10.4	-3.72
[12]	-7.61	-0.32	20.6	8.83	10.7
[13]	-0.63	-6.55	0.37	1.94	2.69
[14]	-1.93	-8.2	1.19	5.32	11.4

Settings	drug sensitivity score
DERL-7 (IL-2 2.5 ng/mL) [16]	10.5
IMC-1 (IL-2 20 ng/mL) [17]	17.3
KAI3 (IL-2 2.5 ng/mL) [18]	14.6
KHYG-1 (IL-2 2.5 ng/mL) [19]	24
NK-92 (IL-2 2.5 ng/mL) [20]	24.3
NK-YS (IL-2 2.5 ng/mL) [21]	18.2
NKL (IL-2 2.5 ng/mL) [22]	21.9
SNK-6 (IL-2 2.5 ng/mL) [23]	35
YT (IL-2 2.5 ng/mL) [24]	20.8
[15]	5.97
[25]	0
[26]	0.77
[27]	0
[28]	0.07
